Results on one compound are retold here after patent US20060190192A1, “Databases for assessing nucleic acids” (Medical College of Ohio, priority 2005, published 2006).

The test system of data set [1] is cytochrome p450 (CYP) IAI gene. Description: MC RT-PCR with Celi competitive templates: induction of CYPIAI gene expression in β-napthoflavone-exposed BEP2D cells. It is filed as cell-based, human. The note with it: β-napthoflavone 10 μM, control 0.1% DMSO, cDNA loading matched by GAPDH native/competitive template bands. Here is the method: (§1) In a second set of experiments, multiplex competitive reverse transcriptase polymerase chain reaction (MC RT-PCR) with competitive templates were prepared by the Celi method to evaluate the cytochrome p450 (CYP) IAI gene in β-napthoflavone-exposed BEP2D cells. The induction of CYPIAI gene expression was evaluated using both MC RT-PCR with Celi competitive templates, and Northern analysis. Competitive templates were prepared for both the CYPIAI and GAPDH genes. The primers used to prepare the competitive template for GAPDH were: […]
The PCR amplification conditions were the same as described for experiments using the competitive templates prepared for GAPDH and GSHPx by the Higuchi method except the annealing temperature was 55 degrees centigrade and the amplification was carried out for 38 cycles.
Because the native and competitive templates separate without prior restriction endonuclease digestion, samples were taken directly from the PCR reaction tube and applied to ethidium bromide stained 3% Nusieve, 1% LE agarose gels. It was then possible to quantify the products by taking a negative photograph of the gel using Polaroid 665 positive/negative instant film, subjecting the negative photograph to densitometry. […]

Data set [2] deals with cytochrome p450 (CYP) IAI gene. In words: Northern analysis of CYPIAI gene expression in β-napthoflavone-exposed BEP2D cells. The class given is cell-based, human. The note with it: β-napthoflavone 10 μM vs 0.1% DMSO control, 32P-labeled CYPIAI cDNA probe. Here is the method:
as §1
RNA from BEP2D cells incubated for varying times with β-napthoflavone (10 μM) was either electrophoresed on a 1% LE formaldehyde denaturing gel for Northern analysis or MC RT-PCR amplified, as described above. For Northern analysis, following transfer of the RNA to GeneScreen, the filters were hybridized with ^32P-labeled CYPIAI cDNA.
FIG. 36A illustrates Northern analysis of RNA obtained from BEP2D cells that were treated with 0.1% DMSO as a control, or, β-napthoflavone in an effort to induce cytochrome p450 IA1 (CYPIA1). FIG. 36B illustrates DNA PCR-amplified from serial dilutions of cDNA from the same cells used in FIG. 36SA. The cDNA was co-amplified in the presence of competitive templates for GAPDH and CYPIAI, according to some embodiments of the instant invention.

On to `O=c1cc(-c2ccccc2)oc2ccc3ccccc3c12` [β-napthoflavone], for which the “band representing the native CYPIAI gene, exposed cells compared to control cells” value in data set [1] is on record as “much more strongly represented”. For the same compound, in data set [2], the “gene expression of the CYPIAI gene” value was “increase”.
